pIC50: −log10 of the molar value.
Tests used:
Assay in all cases: cells
Details in all cases: Homo sapiens
[1] = test system: SF-539; type: functional, cell-based;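 also: Read-out is a cell viability assay, with IC50 reflecting inhibition of cell growth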
Description: SANGER: Inhibition of human SF539 cell growth in a cell viability assay.

[2] = test system: ES3; type: functional, cell-based;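 also: growth inhibition of ES3 cells, read out with a cell viability assay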
Description: SANGER: Inhibition of human ES3 cell growth in a cell viability assay.

[3] = test system: NTERA-2-cl-D1; type: functional, cell-based;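 also: inhibition of cell growth, measured with a cell viability assay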
Description: SANGER: Inhibition of human NTERA-S-cl-D1 cell growth in a cell viability assay.

[4] = test system: EW-24; type: functional, cell-based;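 also: human EW-24 cancer cell line, growth inhibition read out via a cell viability assay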
Description: SANGER: Inhibition of human EW-24 cell growth in a cell viability assay.

[5] = test system: SK-N-DZ; type: functional, cell-based;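 also: growth inhibition of the cancer cell line, read out through a viability assay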
Description: SANGER: Inhibition of human SK-N-DZ cell growth in a cell viability assay.

[6] = test system: RPMI-8866; type: functional, cell-based
Description: SANGER: Inhibition of human RPMI-8866 cell growth in a cell viability assay.

[7] = test system: SW 962; type: functional, cell-based;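 also: growth inhibition of human SW962 cells, read out by a cell viability assay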
Description: SANGER: Inhibition of human SW962 cell growth in a cell viability assay.

[8] = test system: ML-2; type: functional, cell-based;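 also: growth inhibition of ML-2 cells, measured with a cell viability readout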
Description: SANGER: Inhibition of human ML-2 cell growth in a cell viability assay.

[9] = test system: SK-NEP-1; type: functional, cell-based;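 also: growth inhibition of human SK-NEP-1 cells, read out by a cell viability assay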
Description: SANGER: Inhibition of human SK-NEP-1 cell growth in a cell viability assay.

[10] = test system: KURAMOCHI; type: functional, cell-based;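 also: growth inhibition of KURAMOCHI cells, read out with a cell viability assay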
Description: SANGER: Inhibition of human KURAMOCHI cell growth in a cell viability assay.

[11] = test system: HOP-62; type: functional, cell-based;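 also: cell growth inhibition determined with a viability assay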
Description: SANGER: Inhibition of human HOP-62 cell growth in a cell viability assay.

[12] = test system: A3-KAW; type: functional, cell-based;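 also: growth inhibition of human A3-KAW cells, read out with a cell viability assay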
Description: SANGER: Inhibition of human A3-KAW cell growth in a cell viability assay.

[13] = test system: OMC-1; type: functional, cell-based;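 also: growth inhibition of the OMC-1 cell line, measured by a cell viability assay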
Description: SANGER: Inhibition of human OMC-1 cell growth in a cell viability assay.

[14] = test system: ONS-76; type: functional, cell-based;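 also: growth inhibition of human ONS-76 cells, read out with a cell viability assay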
Description: SANGER: Inhibition of human ONS-76 cell growth in a cell viability assay.

[15] = test system: HCE-4; type: functional, cell-based;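 also: cell viability assay measuring inhibition of growth in the human HCE-4 cell line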
Description: SANGER: Inhibition of human HCE-4 cell growth in a cell viability assay.

[16] = test system: JVM-2; type: functional, cell-based;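 also: growth inhibition of JVM-2 cells determined by a cell viability assay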
Description: SANGER: Inhibition of human JVM-2 cell growth in a cell viability assay.

[17] = test system: KS-1; type: functional, cell-based;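 also: growth inhibition of KS-1 cells, read out with a cell viability assay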
Description: SANGER: Inhibition of human KS-1 cell growth in a cell viability assay.

[18] = test system: KP-N-YS; type: functional, cell-based;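 also: cell viability assay measuring inhibition of cell line growth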
Description: SANGER: Inhibition of human KP-N-YS cell growth in a cell viability assay.

[19] = test system: JVM-3; type: functional, cell-based;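 also: growth inhibition of human JVM-3 cells, read out with a cell viability assay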
Description: SANGER: Inhibition of human JVM-3 cell growth in a cell viability assay.

[20] = test system: CTB-1; type: functional, cell-based
Description: SANGER: Inhibition of human CTB-1 cell growth in a cell viability assay.

[21] = test system: LB1047-RCC; type: functional, cell-based;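 also: inhibition of cell growth, determined with a cell viability assay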
Description: SANGER: Inhibition of human LB1047-RCC cell growth in a cell viability assay.

[22] = test system: SCC-15; type: functional, cell-based;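 also: growth inhibition of SCC-15 cells, read out with a cell viability assay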
Description: SANGER: Inhibition of human SCC-15 cell growth in a cell viability assay.

[23] = test system: KNS-42; type: functional, cell-based;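 also: growth inhibition of KNS-42 cells, read out with a cell viability assay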
Description: SANGER: Inhibition of human KNS-42 cell growth in a cell viability assay.

[24] = test system: HCE-T; type: functional, cell-based;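 also: cell viability assay read-out, reporting inhibition of HCE-T cell growth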
Description: SANGER: Inhibition of human HCE-T cell growth in a cell viability assay.

[25] = test system: DMS-114; type: functional, cell-based
[26] = test system: KGN; type: functional, cell-based;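 also: growth inhibition of KGN cells, read out with a cell viability assay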
Description: SANGER: Inhibition of human KGN cell growth in a cell viability assay.

[27] = test system: TK-10; type: functional, cell-based;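 also: growth inhibition of TK-10 cells, read out in a cell viability assay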
Description: SANGER: Inhibition of human TK10 cell growth in a cell viability assay.

[28] = test system: NCI-H209; type: functional, cell-based;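 also: growth inhibition of human NCI-H209 cells, measured by a cell viability assay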
Description: SANGER: Inhibition of human NCI-H209 cell growth in a cell viability assay.

[29] = test system: D-502MG; type: functional, cell-based
Description: SANGER: Inhibition of human D-502MG cell growth in a cell viability assay.

[30] = test system: EC-GI-10; type: functional, cell-based
Description: SANGER: Inhibition of human EC-GI-10 cell growth in a cell viability assay.

[31] = test system: KG-1; type: functional, cell-based;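 also: growth inhibition of KG-1 cells, read out by a cell viability assay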
Description: SANGER: Inhibition of human KG-1 cell growth in a cell viability assay.

[32] = test system: SJSA-1; type: functional, cell-based;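 also: growth inhibition of human SJSA-1 cells, read out through a cell viability measurement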
Description: SANGER: Inhibition of human SJSA-1 cell growth in a cell viability assay.

[33] = test system: TE-11; type: functional, cell-based;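 also: growth inhibition of human TE-11 cells, read out by a cell viability assay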
Description: SANGER: Inhibition of human TE-11 cell growth in a cell viability assay.

[34] = test system: MS-1; type: functional, cell-based;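 also: growth inhibition of MS-1 cells, read out by cell viability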
Description: SANGER: Inhibition of human MS-1 cell growth in a cell viability assay.

[35] = test system: GCIY; type: functional, cell-based;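 also: growth inhibition of the human GCIY cell line, read out by a cell viability assay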
Description: SANGER: Inhibition of human GCIY cell growth in a cell viability assay.

[36] = test system: CTV-1; type: functional, cell-based;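 also: growth inhibition of the cell line, read out with a cell viability assay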
Description: SANGER: Inhibition of human CTV-1 cell growth in a cell viability assay.

[37] = test system: SNB-75; type: functional, cell-based;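 also: cell viability assay measuring growth inhibition of human SNB-75 cells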
Description: SANGER: Inhibition of human SNB75 cell growth in a cell viability assay.

[38] = test system: D283 Med; type: functional, cell-based
Description: SANGER: Inhibition of human D-283MED cell growth in a cell viability assay.

[39] = test system: NOMO-1; type: functional, cell-based;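 also: growth inhibition of human NOMO-1 cells measured by a cell viability assay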
Description: SANGER: Inhibition of human NOMO-1 cell growth in a cell viability assay.

[40] = test system: NCI-H1355; type: functional, cell-based;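 also: growth inhibition of human NCI-H1355 cells, read out by a cell viability assay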
Description: SANGER: Inhibition of human NCI-H1355 cell growth in a cell viability assay.

[41] = test system: C8166; type: functional, cell-based;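 also: growth inhibition of human C8166 cells measured by a cell viability assay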
Description: SANGER: Inhibition of human C8166 cell growth in a cell viability assay.

[42] = test system: EOL1; type: functional, cell-based;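 also: growth inhibition of EoL-1 cells, read out by a cell viability assay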
Description: SANGER: Inhibition of human EoL-1-cell cell growth in a cell viability assay.

[43] = test system: MHH-PREB-1; type: functional, cell-based;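 also: cell viability assay measuring inhibition of proliferation of human MHH-PREB-1 cells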
Description: SANGER: Inhibition of human MHH-PREB-1 cell growth in a cell viability assay.

[44] = test system: HuTu80; type: functional, cell-based, HUTU-80;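 also: growth inhibition of HuTu80 human cells, determined with a cell viability readout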
Description: SANGER: Inhibition of human HUTU-80 cell growth in a cell viability assay.

[45] = test system: A388; type: functional, cell-based;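 also: growth inhibition of human A388 cells, read out with a cell viability assay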
Description: SANGER: Inhibition of human A388 cell growth in a cell viability assay.

[46] = test system: KALS-1; type: functional, cell-based;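 also: growth inhibition of KALS-1 cells, determined with a cell viability assay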
Description: SANGER: Inhibition of human KALS-1 cell growth in a cell viability assay.

[47] = test system: NCI-H1155; type: functional, cell-based;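 also: cell growth inhibition measured by a viability assay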
Description: SANGER: Inhibition of human NCI-H1155 cell growth in a cell viability assay.

[48] = test system: ES5; type: functional, cell-based;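 also: growth inhibition of human ES5 cells, read out by a cell viability assay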
Description: SANGER: Inhibition of human ES5 cell growth in a cell viability assay.

[49] = test system: OS-RC-2; type: functional, cell-based;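 also: growth inhibition of human OS-RC-2 cells, measured by a cell viability assay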
Description: SANGER: Inhibition of human OS-RC-2 cell growth in a cell viability assay.

[50] = test system: SK-MEL-1; type: functional, cell-based;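 also: growth inhibition of human SK-MEL-1 cells, read out by a cell viability assay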
Description: SANGER: Inhibition of human SK-MEL-1 cell growth in a cell viability assay.

[51] = test system: NCI-H1648; type: functional, cell-based;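 also: cell viability assay measuring inhibition of NCI-H1648 cell growth, from the Sanger screening data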
Description: SANGER: Inhibition of human NCI-H1648 cell growth in a cell viability assay.

[52] = test system: LS-1034; type: functional, cell-based
Description: SANGER: Inhibition of human LS-1034 cell growth in a cell viability assay.

[53] = test system: MN-60; type: functional, cell-based;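 also: growth inhibition of the MN-60 cell line, determined with a cell viability assay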
Description: SANGER: Inhibition of human MN-60 cell growth in a cell viability assay.

[54] = test system: NCI-H510A; type: functional, cell-based;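 also: growth inhibition of NCI-H510A cells, read out with a cell viability assay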
Description: SANGER: Inhibition of human NCI-H510A cell growth in a cell viability assay.

[55] = test system: DMS-79; type: functional, cell-based;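 also: growth inhibition measured with a cell viability assay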
Description: SANGER: Inhibition of human DMS-79 cell growth in a cell viability assay.

[56] = test system: GOTO; type: functional, cell-based;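 also: growth inhibition of GOTO cells, read out by a cell viability assay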
Description: SANGER: Inhibition of human GOTO cell growth in a cell viability assay.

[57] = test system: MSTO-211H; type: functional, cell-based
Description: SANGER: Inhibition of human MSTO-211H cell growth in a cell viability assay.

[58] = test system: DU-4475; type: functional, cell-based
Description: SANGER: Inhibition of human DU-4475 cell growth in a cell viability assay.

[59] = test system: KLE; type: functional, cell-based;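 also: growth inhibition of human KLE cells, read out with a cell viability assay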
Description: SANGER: Inhibition of human KLE cell growth in a cell viability assay.

[60] = test system: CAS-1; type: functional, cell-based
Description: SANGER: Inhibition of human CAS-1 cell growth in a cell viability assay.

[61] = test system: SK-N-FI; type: functional, cell-based
Description: SANGER: Inhibition of human SK-N-FI cell growth in a cell viability assay.

[62] = test system: HCC1187; type: functional, cell-based
Description: SANGER: Inhibition of human HCC1187 cell growth in a cell viability assay.

[63] = test system: L-428; type: functional, cell-based
Description: SANGER: Inhibition of human L-428 cell growth in a cell viability assay.

[64] = test system: KARPAS-45; type: functional, cell-based
Description: SANGER: Inhibition of human KARPAS-45 cell growth in a cell viability assay.

[65] = test system: Calu-6; type: functional, cell-based
Description: SANGER: Inhibition of human Calu-6 cell growth in a cell viability assay.

[66] = test system: KINGS-1; type: functional, cell-based
Description: SANGER: Inhibition of human KINGS-1 cell growth in a cell viability assay.

For `CC[C@@]1(O)C(=O)OCc2c1cc1n(c2=O)Cc2cc3ccccc3nc2-1` [CAMPTOTHECIN], the pIC50 [1] was 8.05, the pIC50 [2] was 9.03 and the pIC50 [3] was 9.56. The pIC50 [4] was 8.39, the pIC50 [5] was 7.66 and the pIC50 [6] was 8.76. It also gave a pIC50 [7] of 7.69, a pIC50 [8] of 8.66 and a pIC50 [9] of 8.91. For the same compound, the pIC50 [10] was less than 7.00, the pIC50 [11] was less than 7.00 and the pIC50 [12] was 8.78. The pIC50 [13] was 7.11, the pIC50 [14] was 8.62 and the pIC50 [15] was 8.74. For the same compound, the pIC50 [16] was less than 7.00, the pIC50 [17] was 7.24 and the pIC50 [18] was less than 7.00. It also gave a pIC50 [19] of 8.60, a pIC50 [20] of 9.37 and a pIC50 [21] of 8.10. It also gave a pIC50 [22] of 7.73, a pIC50 [23] of 7.48 and a pIC50 [24] of 8.26. For the same compound, the pIC50 [25] was 7.09, the pIC50 [26] was 7.98 and the pIC50 [27] was 7.25. The pIC50 [28] was 10.31, the pIC50 [29] was 7.65 and the pIC50 [30] was 8.10. The pIC50 [31] was 8.95, the pIC50 [32] was 7.74 and the pIC50 [33] was 7.79. For the same compound, the pIC50 [34] was 8.56, the pIC50 [35] was 7.18 and the pIC50 [36] was 9.04. For the same compound, the pIC50 [37] was 7.76, the pIC50 [38] was 8.50 and the pIC50 [39] was 8.81. The pIC50 [40] was 7.18, the pIC50 [41] was 7.38 and the pIC50 [42] was 9.57. The pIC50 [43] was 8.56, the pIC50 [44] was 8.47 and the pIC50 [45] was 7.99. It also gave a pIC50 [46] of 7.16, a pIC50 [47] of 8.93 and a pIC50 [48] of 9.11. For the same compound, the pIC50 [49] was 8.00, the pIC50 [50] was 7.29 and the pIC50 [51] was 7.42. It also gave a pIC50 [52] of less than 7.00, a pIC50 [53] of 8.29 and a pIC50 [54] of 8.77. It also gave a pIC50 [55] of 7.50, a pIC50 [56] of 9.15 and a pIC50 [57] of 8.08. For the same compound, the pIC50 [58] was 8.51.
Work on `CO[C@@]12[C@H](COC(N)=O)C3=C(C(=O)C(C)=C(N)C3=O)N1C[C@@H]1N[C@@H]12` [MITOMYCIN] yielded a pIC50 [1] of 6.90, a pIC50 [2] greater than 7.20 and a pIC50 [3] greater than 7.20. The pIC50 [4] was 6.11, the pIC50 [5] was 5.62 and the pIC50 [6] was 5.88. It also gave a pIC50 [7] of 6.80, a pIC50 [8] greater than 7.20 and a pIC50 [9] of 6.78. The pIC50 [10] was 6.28, the pIC50 [11] was 7.69 and the pIC50 [59] was 5.53. For the same compound, the pIC50 [12] was 7.46, the pIC50 [13] was 6.41 and the pIC50 [14] was 6.48. It also gave a pIC50 [15] of 7.24, a pIC50 [16] of 6.40 and a pIC50 [17] of 6.44. The pIC50 [19] was 5.58, the pIC50 [20] was 6.51 and the pIC50 [21] was greater than 7.20. The pIC50 [22] was 6.06, the pIC50 [23] was 5.96 and the pIC50 [60] was 5.47. It also gave a pIC50 [24] of 6.43, a pIC50 [25] of 5.68 and a pIC50 [26] of 6.68. The pIC50 [61] was less than 4.80, the pIC50 [27] was 6.28 and the pIC50 [28] was greater than 7.20. For the same compound, the pIC50 [29] was less than 4.80, the pIC50 [30] was 4.83 and the pIC50 [31] was 6.22. For the same compound, the pIC50 [32] was 6.88, the pIC50 [33] was 7.04 and the pIC50 [34] was 6.46. It also gave a pIC50 [35] of 6.39, a pIC50 [62] of 5.05 and a pIC50 [36] of 7.73. For the same compound, the pIC50 [37] was 6.52, the pIC50 [38] was 6.66 and the pIC50 [39] was 6.82. The pIC50 [40] was 6.93, the pIC50 [41] was 6.03 and the pIC50 [42] was 6.79. For the same compound, the pIC50 [63] was 5.94, the pIC50 [43] was 5.50 and the pIC50 [44] was greater than 7.20. The pIC50 [45] was 6.68, the pIC50 [46] was 6.89 and the pIC50 [47] was 6.06. For the same compound, the pIC50 [48] was 6.99, the pIC50 [49] was 6.58 and the pIC50 [50] was 5.72. The pIC50 [51] was 6.28, the pIC50 [64] was 5.64 and the pIC50 [65] was 6.50. It also gave a pIC50 [52] of 7.52, a pIC50 [66] of 5.06 and a pIC50 [53] of 5.90. It also gave a pIC50 [54] of 6.39, a pIC50 [55] of 5.61 and a pIC50 [56] of 6.26. It also gave a pIC50 [57] of 5.55 and a pIC50 [58] of 7.32.
